Experimental data taken from US20230390315A1, “COMPOSITIONS AND METHODS FOR TREATING ISCHEMIC CONDITIONS” (The Regents of the University of California, priority 2020, published 2023).

What was measured:
[1] = test system: bovine retinal microvascular endothelial cells (BREC); assay: BREC proliferation assay; assay type: cell-based
Method: Proliferation assays with BCECs and BRECs were performed. Log-phase growing BCECs or BRECs (passage <10) were trypsinized, re-suspended and seeded in 96-well plates (no coating) in low-glucose DMEM supplemented with 10% bovine calf serum, 2 mM glutamine, and antibiotics (growth medium), at a density of 1200-1500 cells per well in 200 μl volume. All reagents were added at the indicated final concentrations. After 3-6 days, cells were incubated with AlamarBlue for 4 hrs. Fluorescence was measured at 530 nm excitation wavelength and 590 nm emission wavelength. The experiments were repeated at least three times. To create a hypoxic condition, cells were placed in a hypoxia incubator with a mixture of gas consisting of 1% 02, 5% CO2 and 94% Nz. On each 96-well plate, untreated and VEGF-treated (10/ng/ml) wells were included to monitor plate-to-plate variations. 20% methanol or 0.05% DMSO served as negative controls. 0.05% DMSO served as negative controls when Cas was tested in these cells. Human RMVECs and human adult DMVECs were split into Gelatin-coated 96 wells (2000 cells per well) in low glucose DMEM containing 10% FBS. 1200 cells/well was set up for proliferation assay in low glucose media containing FBS. Data was collected at day 4 or 5. HUVEC (p7-10) were grown on gelatin-coated plate until it reached 70-80% confluency.

α-glucosidase = α-glucosidase activity assay; assay type: biochemical, Saccharomyces cerevisiae; conditions: up to 2 mM
Method: a-mannosidase activity was measured using substrate p-nitrophenyl α-mannopyranoside (1 mM). Enzyme from Jack Bean ([…]) (final concentration of 0.077 U) was incubated at 37° C. in a final volume of 50 μl of 50 mM potassium phosphate buffer, pH 7.5. α-glucosidase was assayed with substrate p-nitrophenyl α-glucoside (7 mM). Enzyme from Saccharomyces cerevisiae-type 1 (Sigma, G5003) (final concentration of 0.1 U) was incubated at 37° C. in a final volume of 50 μl of PBS, pH 7.5. β-Glucosidase was assayed with substrate 4-nitrophenyl β-D-glucopyranoside (Roche). Enzyme from almond (Sigma, G0395) (final concentration of 0.002 U) was incubated at 37° C. in a final volume of 50 μl of PBS, pH 7.5 containing 1% SDS. The incubation was stopped by addition of an equal volume of acid-based stop solution (R&D systems, 895032). Enzymatic activity was measured at 405 nm. α-glucosidase from Saccharomyces cerevisiae type I ([…]) with p-nitrophenyl α-D-glucopyranoside (Sigma, N1377) as the substrate.

[2] = Cellular uptake of ManN in BCECs; assay type: in vitro ADME, bovine
human dermal fibroblasts = assay: Human dermal fibroblast proliferation assay; assay type: cell-based; conditions: alone or in combination with growth factors
Method: Proliferation assays with fibroblasts were done in low-glucose DMEM containing 1% FBS, with or without 10 ng/ml bFGF, or 100 ng/ml human EGF and the assay was ended at day 3. ARPE-19 cells were gently lifted with 0.025% trypsin and plated in RtEGM media (Clonetics) containing 2% FBS, L-glutamine, human bFGF and GA-1000. Once cells were attached to plates, serum-free RtEGM media was used to maintain the cultures. For proliferation assays, 1500 human RPE cells were plated into 96-well plates in low-glucose DMEM containing 1% FBS. A673, U87MG, Calu6 and AML12 cells were grown until confluent and were then harvested and re-suspended in appropriate assay media. For proliferation assays, cells were plated at the density of 1000-2000 cells/well in low-glucose DMEM containing 5% FBS or otherwise stated. Bovine pituitary cells (pituitary folliculostellate cells) were isolated as previously described. For proliferation assays with human epidermal keratinocytes, human DMVECs and human dermal fibroblast cells, 1000 cells/well were plated in low-glucose DMEM containing 1% FBS with or without various growth factors. The assay was ended at day 3 for bovine pituitary cells and at day 4 for all the other cell types. […] Four days later, tumor cell growth was measured by the MTS assay (Promega, Madison, WI), a colorimetric assay that measures metabolic activity of viable cells. […]

[3] = ManN stability in wound fluid from S. aureus infected mice; assay type: in vitro ADME, mouse; conditions: up to 24 hours at 37° C.
Method: To test ManN stability in wound fluid collected from mice with skin infection as described below, 1.5 μl of 5% ManN solution was added to each 200 μl wound fluid which was first diluted 1:1 (v/v) with PBS. At each time point, samples were taken from 37° C. incubator and stored at −80° C. Plasma proteins were precipitated by adding ice cold acetonitrile to plasma: acetonitrile 1:3 (v/v) ratio. Samples were kept over ice for 1 hr and then centrifuged at 12000 g for 10 min at 7° C. to form a pellet. Supernatants were transferred to other tubed, dried down on a Speed Vac and then reconstituted in UltraPure distilled water and filtered through pre-washed Nanosep 3K Omega filters (Pall Corporation). The filtrate was dried down on Speed Vac. The dry samples were dissolved in 100 μl of water and 2 μL plasma or wound fluid sample was subjected to HPLC analysis. Neutral and amino sugars were separated on a Dionex CarboPac™ PA1 column 4 mm×250 mm with 4 mm×50 mm guard column. An isocratic gradient of 19 mM sodium hydroxide with 0.95 mM sodium acetate was used at a flow rate of 1 ml/min with 20 min run. Data was collected using the Dionex ICS-3000 HPLC system with pulsed amperometric detector using standard Quad waveform. ManN was identified and quantified by comparison with monosaccharide standard using Thermo Scientific Chromeleon software. No ManN samples served as negative controls. […]

[4] = in vivo

N[C@H](C=O)[C@@H](O)[C@H](O)[C@H](O)CO [ManN, 2-Amino-2-deoxy-D-mannose]
additive effects in promoting BREC proliferation [1]: Additive effects | effect on α-glucosidase (α-glucosidase): No effect | cell entry and accumulation [2]: entered and accumulated inside the cells in a concentration-dependent manner | ManN detected in 1 mg cell lysate ([2]; 400 uM ManN for 2 hours): 0.66 nmol | proliferation of human dermal fibroblasts (human dermal fibroblasts): no increases in proliferation | loss of free ManN on incubation with wound fluid [3]: No significant loss of free ManN | plasma free ManN peak level ([4]; male, C57BL/6, mouse, po): ~100 nmol/ml plasma | time of plasma peak level ([4]; male, C57BL/6, mouse, po): 1 h | free ManN in ischemic leg muscle ([4]; male, C57BL/6, mouse, po, 2 h): 0.17+/−0.18 nmol/mg protein | plasma free ManN detectable relative to peak ([4]; mouse): about half of that amount
